Assay results as given in BindingDB's records for patent US20230382915 (Deciphera Pharmaceuticals, 2023).

What was measured:
[1] = target: T1, Eukaryotic translation initiation factor 2-alpha kinase 3 (Homo sapiens, UniProt Q9NZJ5); experiment: Biochemical Assay for PERK
T1 sequence (Q9NZJ5 whole entry): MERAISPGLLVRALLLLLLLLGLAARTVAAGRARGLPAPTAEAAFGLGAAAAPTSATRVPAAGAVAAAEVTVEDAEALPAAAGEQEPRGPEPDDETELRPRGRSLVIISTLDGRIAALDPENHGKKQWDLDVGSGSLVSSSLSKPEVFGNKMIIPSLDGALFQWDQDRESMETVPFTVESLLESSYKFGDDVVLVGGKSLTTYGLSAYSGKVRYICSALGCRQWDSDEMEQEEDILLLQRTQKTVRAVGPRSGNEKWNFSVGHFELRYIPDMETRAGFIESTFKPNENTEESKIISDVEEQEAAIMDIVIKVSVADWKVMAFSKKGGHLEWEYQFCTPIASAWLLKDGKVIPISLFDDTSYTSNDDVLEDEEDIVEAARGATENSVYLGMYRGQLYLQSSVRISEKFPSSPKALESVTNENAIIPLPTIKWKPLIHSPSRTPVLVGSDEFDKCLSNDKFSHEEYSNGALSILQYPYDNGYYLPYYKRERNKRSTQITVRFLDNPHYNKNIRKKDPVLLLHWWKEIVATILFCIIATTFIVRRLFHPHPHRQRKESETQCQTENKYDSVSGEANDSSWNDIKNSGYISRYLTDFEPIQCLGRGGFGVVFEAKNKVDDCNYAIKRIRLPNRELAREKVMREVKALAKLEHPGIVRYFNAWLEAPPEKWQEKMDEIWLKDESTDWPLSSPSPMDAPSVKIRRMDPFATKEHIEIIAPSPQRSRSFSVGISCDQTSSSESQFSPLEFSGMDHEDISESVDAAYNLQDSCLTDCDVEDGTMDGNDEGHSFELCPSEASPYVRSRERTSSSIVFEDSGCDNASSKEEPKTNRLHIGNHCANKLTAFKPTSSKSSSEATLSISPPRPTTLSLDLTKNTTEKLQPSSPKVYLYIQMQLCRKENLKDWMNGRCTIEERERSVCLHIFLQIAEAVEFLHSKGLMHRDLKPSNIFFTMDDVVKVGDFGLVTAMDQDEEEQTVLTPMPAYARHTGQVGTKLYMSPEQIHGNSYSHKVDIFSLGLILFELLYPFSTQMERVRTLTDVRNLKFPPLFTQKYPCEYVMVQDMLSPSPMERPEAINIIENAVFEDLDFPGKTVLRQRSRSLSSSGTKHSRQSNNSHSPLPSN
Description: Activity of PERK kinase was determined spectroscopically using a coupled pyruvate kinase/lactate dehydrogenase assay that continuously monitors the ATP hydrolysis-dependent oxidation of NADH (e.g., Schindler et al. Science (2000) 289: 1938-1942). Assays were conducted in 384-well plates ([…] final volume) using 10 nM PERK (from Beryllium), 0.25 mg/mL Myelin Basic Protein substrate, 1.5 units pyruvate kinase, 2.1 units lactate dehydrogenase, 1 mM phosphoenol pyruvate, 0.28 mM NADH and 1 mM ATP in assay buffer (100 mM Tris, pH 7.5, 15 mM MgCl2, 0.5 mM DTT, 0.004% (w/v) BSA, and 0.004% Triton X-100). Inhibition of PERK was measured by adding serial diluted test compound (final assay concentration of 1% DMSO). A decrease in absorption at 340 nm was monitored continuously for 6 hours at 30° C. on a multi-mode microplate reader (BioTek). The reaction rate was calculated using the 2-3 h time frame. The reaction rate at each concentration of compound was converted to percent inhibition using controls (i.e., reaction with no test compound and reaction with a known inhibitor) and IC50 values were calculated using software routines in Prism (GraphPad software).

[2] = target: eIF-2-alpha kinase GCN2 (Homo sapiens, UniProt Q9P2K8); experiment: Biochemical Assay for GCN2
eIF-2-alpha kinase GCN2, sequence (Q9P2K8 whole entry): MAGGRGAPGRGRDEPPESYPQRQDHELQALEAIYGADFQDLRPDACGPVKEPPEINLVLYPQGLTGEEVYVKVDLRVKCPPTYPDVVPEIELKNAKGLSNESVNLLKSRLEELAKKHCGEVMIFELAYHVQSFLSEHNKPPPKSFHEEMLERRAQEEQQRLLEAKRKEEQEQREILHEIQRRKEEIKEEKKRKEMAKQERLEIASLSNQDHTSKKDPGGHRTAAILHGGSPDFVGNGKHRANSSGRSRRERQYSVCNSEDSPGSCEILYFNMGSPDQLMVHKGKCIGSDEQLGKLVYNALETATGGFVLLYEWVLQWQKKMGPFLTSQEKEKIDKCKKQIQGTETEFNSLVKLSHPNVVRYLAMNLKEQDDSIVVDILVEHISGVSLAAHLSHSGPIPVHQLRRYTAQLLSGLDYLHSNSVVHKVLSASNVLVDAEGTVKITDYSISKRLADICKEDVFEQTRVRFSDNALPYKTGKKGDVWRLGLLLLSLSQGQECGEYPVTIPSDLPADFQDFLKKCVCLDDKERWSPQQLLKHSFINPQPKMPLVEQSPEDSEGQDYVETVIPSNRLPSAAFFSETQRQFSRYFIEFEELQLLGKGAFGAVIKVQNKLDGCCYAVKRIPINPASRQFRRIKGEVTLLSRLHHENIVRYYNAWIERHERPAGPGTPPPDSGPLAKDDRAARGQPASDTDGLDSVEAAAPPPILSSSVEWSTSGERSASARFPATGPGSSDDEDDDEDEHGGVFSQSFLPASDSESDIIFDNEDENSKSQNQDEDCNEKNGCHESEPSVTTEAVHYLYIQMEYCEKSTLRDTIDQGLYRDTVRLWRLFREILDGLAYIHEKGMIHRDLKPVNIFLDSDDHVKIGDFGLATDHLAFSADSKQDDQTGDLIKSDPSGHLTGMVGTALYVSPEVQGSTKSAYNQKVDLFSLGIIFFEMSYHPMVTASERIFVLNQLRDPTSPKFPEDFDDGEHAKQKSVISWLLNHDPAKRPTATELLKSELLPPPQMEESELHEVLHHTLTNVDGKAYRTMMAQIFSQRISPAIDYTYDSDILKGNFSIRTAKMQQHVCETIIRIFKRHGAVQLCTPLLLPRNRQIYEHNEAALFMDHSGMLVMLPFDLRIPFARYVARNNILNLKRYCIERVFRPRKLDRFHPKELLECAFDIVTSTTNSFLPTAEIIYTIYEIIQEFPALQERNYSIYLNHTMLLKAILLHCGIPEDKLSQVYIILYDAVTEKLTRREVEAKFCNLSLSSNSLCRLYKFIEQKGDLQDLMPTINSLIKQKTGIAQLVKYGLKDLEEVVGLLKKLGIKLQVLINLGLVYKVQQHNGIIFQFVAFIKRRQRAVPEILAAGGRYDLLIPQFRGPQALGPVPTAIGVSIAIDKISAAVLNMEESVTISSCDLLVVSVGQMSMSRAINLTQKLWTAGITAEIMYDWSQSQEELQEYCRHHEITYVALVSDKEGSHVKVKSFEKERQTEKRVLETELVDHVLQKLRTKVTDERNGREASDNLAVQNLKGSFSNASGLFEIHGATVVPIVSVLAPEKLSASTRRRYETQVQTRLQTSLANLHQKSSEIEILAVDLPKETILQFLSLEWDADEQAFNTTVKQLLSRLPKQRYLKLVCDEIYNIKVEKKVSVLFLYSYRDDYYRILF
Description: Activity of GCN2 kinase was determined using a TR-FRET kinase activity assay (e.g. Riddle et al. Analytical Biochemistry (2006) 356(1) 108-116). Assays were conducted in 384-well plates (13 μL assay volume) using 2 nM GCN2 (Carna Biosciences), 130 nM GFP-EIf2α (Invitrogen), 0.2 mg/mL E. coli tRNA (sigma) and 1 mM ATP in kinase buffer (Invitrogen). Inhibition of GCN2 was measured by adding serial diluted test compound (final assay concentration of 0.5% DMSO) followed by a 3-hour incubation. Tb-peIF2α (pSer52) antibody (Invitrogen) (2 nM final assay concentration) in kinase buffer containing EDTA (final assay concentration of 20 mM) was added. After a 60 min incubation at room temperature, TR-FRET was monitored using an excitation wavelength of 340 nm and emission wavelengths of 490 nm and 520 nm. The emission ratio (520/490) at each compound concentration of was converted to percent inhibition using controls (i.e., reaction with no test compound and reaction with a known inhibitor) and IC50 values were calculated by fitting a four-parameter sigmoidal curve to the data using Prism (GraphPad software).

Structure (SMILES): Nc1nccc2scc(-c3cccc(NS(=O)(=O)c4cc(Cl)cc(CO)c4Cl)c3F)c12 [US20230382915, Example 11]
- IC50 [1]: < 100 nM

Structure (SMILES): Nc1nccc2occ(-c3cccc(NS(=O)(=O)c4cc(Cl)cc(CO)c4Cl)c3F)c12 [US20230382915, Example 12]
- IC50 [1]: < 100 nM

Structure (SMILES): CN1CCC(n2cc(-c3cccc(NS(=O)(=O)c4cc(Cl)cc(CO)c4Cl)c3F)c3c(N)ncnc32)CC1 [US20230382915, Example 17]
- IC50 [2]: < 100 nM
- IC50 [1]: < 100 nM
